What was measured:
[1] = biological target: human recombinant BuChE (hBuChE) (Homo sapiens, UniProt P06276); test: BuChE inhibition, Ellman spectrophotometry; assay type: biochemical; settings: stronger than donepezil
[2] = tested on: BV-2 cells; test: CCK-8 cytotoxicity in BV-2 cells; assay type: cell-based; settings: 24 h
[3] = tested on: PC12 cells; test: CCK-8 cytotoxicity in PC12 cells; assay type: cell-based; settings: 24 h
[4] = tested on: mice with scopolamine-induced memory impairment; test: Step-down passive avoidance test, scopolamine-induced memory impairment; assay type: in vivo
[5] = tested on: Kunming mice; test: In vivo acute toxicity
[6] = biological target: eqBuChE (Equus caballus, UniProt P81908); test: BuChE inhibition, Ellman spectrophotometry; assay type: biochemical, equine; settings: more potent than donepezil
eqBuChE, sequence (P81908 whole entry): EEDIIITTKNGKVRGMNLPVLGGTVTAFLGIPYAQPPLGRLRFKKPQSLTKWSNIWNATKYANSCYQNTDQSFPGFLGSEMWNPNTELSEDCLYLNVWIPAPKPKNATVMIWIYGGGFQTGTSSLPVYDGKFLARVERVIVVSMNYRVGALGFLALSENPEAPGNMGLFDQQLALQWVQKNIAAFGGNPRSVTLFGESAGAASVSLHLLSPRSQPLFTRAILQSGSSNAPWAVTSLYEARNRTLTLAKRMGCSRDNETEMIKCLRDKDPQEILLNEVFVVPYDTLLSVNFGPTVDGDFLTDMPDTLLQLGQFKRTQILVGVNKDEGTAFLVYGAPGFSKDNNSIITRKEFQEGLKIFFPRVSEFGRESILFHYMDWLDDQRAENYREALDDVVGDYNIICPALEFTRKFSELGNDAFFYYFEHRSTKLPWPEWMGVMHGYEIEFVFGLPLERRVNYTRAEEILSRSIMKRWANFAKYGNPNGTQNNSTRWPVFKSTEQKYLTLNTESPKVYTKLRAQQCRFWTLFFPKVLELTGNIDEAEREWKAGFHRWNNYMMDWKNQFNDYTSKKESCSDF

[7] = 7d 5, 10, 20 mg/kg oral, scopolamine 3 mg/kg i.p., dose-dependent
[8] = high-dose 20 mg/kg oral vs donepezil 10 mg/kg
[9] = medium-dose 10 mg/kg oral vs donepezil 10 mg/kg

human recombinant BuChE (hBuChE), sequence (P06276 29-602): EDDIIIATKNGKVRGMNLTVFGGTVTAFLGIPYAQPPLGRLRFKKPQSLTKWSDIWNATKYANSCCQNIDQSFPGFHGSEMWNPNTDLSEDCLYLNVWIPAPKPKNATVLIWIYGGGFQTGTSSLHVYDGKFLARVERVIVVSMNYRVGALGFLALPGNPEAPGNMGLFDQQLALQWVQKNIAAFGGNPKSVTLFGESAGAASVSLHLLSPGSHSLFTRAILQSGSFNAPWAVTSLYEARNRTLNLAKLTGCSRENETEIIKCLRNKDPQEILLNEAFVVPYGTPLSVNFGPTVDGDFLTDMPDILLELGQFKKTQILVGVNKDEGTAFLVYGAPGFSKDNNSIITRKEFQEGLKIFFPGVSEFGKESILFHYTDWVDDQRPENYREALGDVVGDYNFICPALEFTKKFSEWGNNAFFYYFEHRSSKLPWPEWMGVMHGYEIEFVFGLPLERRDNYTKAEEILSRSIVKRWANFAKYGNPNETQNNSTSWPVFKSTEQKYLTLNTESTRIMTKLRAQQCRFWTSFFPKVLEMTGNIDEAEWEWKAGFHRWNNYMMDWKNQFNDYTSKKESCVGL

C#CCN(C)CCCCCCCOc1cccc(CN(C)c2c3c(nc4ccccc24)CCCC3)c1 [Compound 6f, N-methyl-N-(3-((7-(methyl(prop-2-yn-1-yl)amino)heptyl)oxy)benzyl)-1,2,3,4-tetrahydroacridin-9-amine]
hBuChE potency relative to donepezil [1]: approximately 7 fold

C#CCN(C)CCCCCCOCc1ccc(CN(C)c2c3c(nc4ccccc24)CCCC3)cc1 [Compound 7d, N-methyl-N-(4-(((6-(methyl(prop-2-yn-1-yl)amino)hexyl)oxy)methyl)benzyl)-1,2,3,4-tetrahydroacridin-9-amine]
Cytotoxicity ([2]; BV-2, 10 μM): > 50% | Effect on cell viability ([2]; BV-2, 0.325 to 2.5 μM): no significant effect | Effect on cell viability ([2]; BV-2, above 2.5 μM): decrease in cell viability | Effect on cell viability ([3]; PC12, 0.325 to 2.5 μM): no significant effect | Effect on cell viability ([3]; PC12, above 2.5 μM): decrease in cell viability | Latency in step-down test [4, 7]: prolong the latency | Number of errors in step-down test [4, 7]: reduce the number of errors | Latency compared with donepezil [4, 8]: longer latency | Number of errors compared with donepezil [4, 8]: fewer errors | Number of errors compared to model group ([4]; low-dose 5 mg/kg oral, Kruskal–Wallis test, p = 0.2219): not statistically significant | Latency compared with donepezil [4, 9]: similar | Number of errors compared with donepezil [4, 9]: similar | Death, abnormal behavior or dietary changes ([5]; KM mice, oral 625, 1250 and 2500 mg/kg, monitored 4 h): No such effects were observed | Average body weight change ([5]; KM mice, single oral dose 625, 1250, 2500 mg/kg, 14 days, vs control group): comparable to that in the control group | Tissue damage (HE staining of heart, liver, kidney, lung, brain) ([5]; mice, 2500 mg/kg oral, day 14): no obvious signs of tissue damage

C#CCN(C)CCCCCCCOCc1ccc(CN(C)c2c3c(nc4ccccc24)CCCC3)cc1 [Compound 7e, N-methyl-N-(4-(((7-(methyl(prop-2-yn-1-yl)amino)heptyl)oxy)methyl)benzyl)-1,2,3,4-tetrahydroacridin-9-amine]
eqBuChE potency relative to donepezil [6]: approximately 18 fold
